The numbers were not newly measured in patent US20090214446A1, “CYCLODEXTRIN INCLUSION COMPLEXES AND METHODS OF PREPARING SAME” (CARGILL, INCORPORATED, priority 2005, published 2009), which cites them from elsewhere.

The conditions of this data set: octanol/water.
Consider `CC(=O)C(C)=O` [diacetyl], for which the “log P” value is recorded as −1.34.
With `C=C(C)[C@H]1CC=C(C)CC1` [limonene], the “log P” value is 4.83.
Turning to `CCc1occc(=O)c1O` [ethyl maltol], the “log P” value is 0.30.
